Assay results: patent US10654808B2, “Tyrosine kinase inhibitor and pharmaceutical composition comprising same” (GUANGDONG RAYNOVENT BIOTECH CO., LTD., priority 2015, dated 2020)

Columns and labels:
Assay type in all cases: biochemical
PDGFRB = target: T1, PDGFRB (Homo sapiens, UniProt P09619); experiment: Z'-LYTE in vitro enzyme activity assay, PDGFRB; details: 100 μM ATP, 60 minutes, room temperature; read-out: IC50 detected by Z'-LYTE, PDGFRB
T1 construct: purchased Millipore
Protocol: (§1) The enzyme activity was measured by Z′-LYTE™ Detection Kinase Assay. The IC50 value of the compounds was used as an index to evaluate the inhibitory effect of the compounds on VEGFR2, FGFR1 and PDGFRB.
(§2) Recombinant human VEGFR2 and FGFR1 proteases were purchased from Life technology, PDGFRB Protease was purchased from Millipore.
(§3) Z-LYTE™ Kit Tyr1 and Tyr4 were purchased from Life technology. Multi-microplate reader, Envision (PerkinElmer) read board was used.
(§4) The test compounds were diluted 3 times with a concentration gradient, the final concentration was from 10 μM to 0.17 nM with a total of 11 concentrations, and each concentration had two parallel holes; the content of DMSO in the assay was 1%.
(§5) 40 nM PDGFRB protein kinase, 2 μM Tyr4 peptide, 100 μM ATP, 50 mM HEPES (pH 7.5), 10 mM MgCl2, 1 mM EGTA, 0.01% BRIJ-35, 2 mM MnCl2, 1 mM DTT. The detector plate was Black Proxiplate 384-Plus plate (PerkinElmer), the reaction was performed at room temperature for 60 minutes, and the reaction system was 10 μl.
(§6) The reaction was stopped by adding 5 μl of DV reagent B (1:128) to the kinase reaction solution and incubated at 23° C. for 60 minutes. The Envision instrument was used to read the plate.
(§7) The data was converted to phosphorylation rate and inhibition rate and the 4 parameter curve fitting (Model 205 in XLFIT5, iDBS) was used to get IC50 data of the compounds.

FGFR1 = target: T2, FGFR1 (Homo sapiens, UniProt P11362); experiment: Z'-LYTE in vitro enzyme activity assay, FGFR1; details: 25 μM ATP, 60 minutes, room temperature; read-out: IC50 detected by Z'-LYTE, FGFR1
T2 construct: purchased Life technology
Protocol: as §1, §2, §3, §4
as §5, with “1” for “40”, “FGFR1” for “PDGFRB”, “25” for “100”
as §6, §7

VEGFR2 = target: T3, VEGFR2 (Homo sapiens, UniProt P35968); experiment: Z'-LYTE in vitro enzyme activity assay, VEGFR2; details: 100 μM ATP, 60 minutes, room temperature; read-out: IC50 detected by Z'-LYTE, VEGFR2
T3 construct: purchased Life technology
Protocol: as §1, §2, §3, §4
3 nM VEGFR2 protein kinase, 2 μM Tyr1 peptide, 100 μM ATP, 50 mM HEPES (pH 7.5), 10 mM MgCl2, 1 mM EGTA, 0.01% BRIJ-35. The detector plate was Black Proxiplate 384-Plus plate (PerkinElmer), the reaction was performed at room temperature for 60 minutes, and the reaction system was 10 μl.
as §6, §7

T2 sequence (P11362 22-822): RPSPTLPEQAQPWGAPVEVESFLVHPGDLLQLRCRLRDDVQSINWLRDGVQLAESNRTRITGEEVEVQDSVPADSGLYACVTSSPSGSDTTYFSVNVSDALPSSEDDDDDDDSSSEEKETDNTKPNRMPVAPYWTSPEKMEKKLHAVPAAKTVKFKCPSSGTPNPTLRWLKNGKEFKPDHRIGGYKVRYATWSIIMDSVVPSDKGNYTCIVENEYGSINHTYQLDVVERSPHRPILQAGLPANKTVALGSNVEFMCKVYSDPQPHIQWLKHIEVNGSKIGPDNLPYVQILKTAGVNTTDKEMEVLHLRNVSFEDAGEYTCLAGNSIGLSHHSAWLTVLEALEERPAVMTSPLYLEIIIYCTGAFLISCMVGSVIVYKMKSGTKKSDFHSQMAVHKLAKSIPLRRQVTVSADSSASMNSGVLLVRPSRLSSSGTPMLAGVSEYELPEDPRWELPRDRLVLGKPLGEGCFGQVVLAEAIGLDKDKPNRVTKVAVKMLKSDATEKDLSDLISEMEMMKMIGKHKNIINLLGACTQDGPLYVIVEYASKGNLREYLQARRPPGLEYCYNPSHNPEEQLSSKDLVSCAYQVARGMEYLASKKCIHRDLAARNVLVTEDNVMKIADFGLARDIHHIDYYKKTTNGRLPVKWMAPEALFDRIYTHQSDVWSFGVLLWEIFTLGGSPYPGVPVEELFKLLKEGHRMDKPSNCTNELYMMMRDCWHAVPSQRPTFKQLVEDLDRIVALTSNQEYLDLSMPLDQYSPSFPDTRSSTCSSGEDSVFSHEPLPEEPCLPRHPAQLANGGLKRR
T3 sequence (P35968 20-1356): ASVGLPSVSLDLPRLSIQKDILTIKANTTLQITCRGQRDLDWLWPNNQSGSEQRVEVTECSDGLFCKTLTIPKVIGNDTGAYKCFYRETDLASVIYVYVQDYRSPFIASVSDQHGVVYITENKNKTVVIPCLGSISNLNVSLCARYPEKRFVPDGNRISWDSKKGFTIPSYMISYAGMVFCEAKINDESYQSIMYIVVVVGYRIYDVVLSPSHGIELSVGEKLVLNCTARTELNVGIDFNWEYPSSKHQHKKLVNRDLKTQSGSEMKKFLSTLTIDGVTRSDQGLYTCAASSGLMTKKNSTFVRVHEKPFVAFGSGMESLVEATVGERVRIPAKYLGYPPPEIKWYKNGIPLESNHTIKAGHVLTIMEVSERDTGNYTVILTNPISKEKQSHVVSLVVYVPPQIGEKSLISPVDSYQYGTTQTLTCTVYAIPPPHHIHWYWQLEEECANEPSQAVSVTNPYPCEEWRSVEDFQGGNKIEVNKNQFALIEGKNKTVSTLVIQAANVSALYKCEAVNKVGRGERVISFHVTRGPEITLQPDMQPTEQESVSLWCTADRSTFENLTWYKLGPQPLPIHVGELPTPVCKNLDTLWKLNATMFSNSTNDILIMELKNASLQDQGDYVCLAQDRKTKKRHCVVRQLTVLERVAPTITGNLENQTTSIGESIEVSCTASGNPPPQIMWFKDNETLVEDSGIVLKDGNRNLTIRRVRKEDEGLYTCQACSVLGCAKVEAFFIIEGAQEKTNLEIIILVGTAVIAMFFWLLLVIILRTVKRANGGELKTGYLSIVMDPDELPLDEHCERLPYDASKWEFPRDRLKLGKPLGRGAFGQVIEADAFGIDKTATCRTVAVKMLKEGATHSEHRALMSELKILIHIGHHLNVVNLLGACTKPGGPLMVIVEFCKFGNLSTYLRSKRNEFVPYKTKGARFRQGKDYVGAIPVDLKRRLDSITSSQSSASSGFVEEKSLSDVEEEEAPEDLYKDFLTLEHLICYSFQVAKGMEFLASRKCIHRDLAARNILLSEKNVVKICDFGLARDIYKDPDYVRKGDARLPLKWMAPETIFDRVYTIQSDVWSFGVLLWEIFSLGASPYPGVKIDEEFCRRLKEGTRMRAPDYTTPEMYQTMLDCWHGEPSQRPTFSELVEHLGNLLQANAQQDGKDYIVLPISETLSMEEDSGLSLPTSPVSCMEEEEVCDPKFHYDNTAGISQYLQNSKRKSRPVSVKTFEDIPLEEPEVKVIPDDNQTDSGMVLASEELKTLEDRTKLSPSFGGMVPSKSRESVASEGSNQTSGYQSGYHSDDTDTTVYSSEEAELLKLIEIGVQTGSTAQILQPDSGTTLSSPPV
T1 sequence (P09619 33-1106): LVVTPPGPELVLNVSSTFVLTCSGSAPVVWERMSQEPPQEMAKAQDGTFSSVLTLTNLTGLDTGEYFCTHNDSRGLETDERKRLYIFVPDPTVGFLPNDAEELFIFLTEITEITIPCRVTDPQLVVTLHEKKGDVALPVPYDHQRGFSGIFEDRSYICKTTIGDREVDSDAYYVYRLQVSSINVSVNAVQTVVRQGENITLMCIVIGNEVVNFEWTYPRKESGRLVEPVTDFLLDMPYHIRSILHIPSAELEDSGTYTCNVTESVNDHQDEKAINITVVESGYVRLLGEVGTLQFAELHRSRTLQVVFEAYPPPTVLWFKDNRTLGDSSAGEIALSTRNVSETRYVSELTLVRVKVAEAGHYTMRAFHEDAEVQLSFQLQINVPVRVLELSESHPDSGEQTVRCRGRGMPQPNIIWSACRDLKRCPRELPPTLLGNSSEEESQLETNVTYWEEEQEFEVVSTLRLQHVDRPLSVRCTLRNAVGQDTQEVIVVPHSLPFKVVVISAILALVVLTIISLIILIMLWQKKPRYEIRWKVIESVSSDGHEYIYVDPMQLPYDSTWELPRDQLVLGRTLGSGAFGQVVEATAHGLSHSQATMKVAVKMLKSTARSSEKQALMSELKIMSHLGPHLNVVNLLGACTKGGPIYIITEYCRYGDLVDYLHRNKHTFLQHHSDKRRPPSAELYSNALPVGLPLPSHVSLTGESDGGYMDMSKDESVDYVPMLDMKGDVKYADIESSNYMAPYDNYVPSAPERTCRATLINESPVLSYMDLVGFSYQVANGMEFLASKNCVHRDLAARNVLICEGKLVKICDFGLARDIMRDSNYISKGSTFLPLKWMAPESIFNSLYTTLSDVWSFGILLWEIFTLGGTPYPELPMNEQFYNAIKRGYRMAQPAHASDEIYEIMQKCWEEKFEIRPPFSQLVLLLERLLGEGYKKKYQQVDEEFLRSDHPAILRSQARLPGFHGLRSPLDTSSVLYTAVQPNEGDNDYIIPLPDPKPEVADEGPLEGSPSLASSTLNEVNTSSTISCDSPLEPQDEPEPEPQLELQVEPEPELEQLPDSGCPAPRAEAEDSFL

| Structure (SMILES) | IC50 (PDGFRB) | IC50 (FGFR1) | IC50 (VEGFR2) |
| --- | --- | --- | --- |
| COc1cc2nccc(Oc3ccc(NC(=O)NC(C)C(F)(F)F)c(Cl)c3)c2cc1C(N)=O (centres unmarked) [Example 36] | 0.2 to 1 µM | 0.2 to 1 µM | 0.2 to 1 µM |
| COc1cc2nccc(Oc3ccc(NC(=S)NC4CC4)cc3C(F)(F)F)c2cc1C(N)=O [Example 42] | 0.2 to 1 µM | 0.2 to 1 µM | 0.2 to 1 µM |
| COc1cc2nccc(Oc3ccc(NC(=S)NC4CC4)nc3)c2cc1C(N)=O [Example 43] | < 0.05 µM | 0.2 to 1 µM | 0.2 to 1 µM |
| NC(=O)c1ccn2ncc(Oc3ccc(NC(=O)NC4CC4)c(Cl)c3)c2c1 [Example 125] | – | – | 0.2 to 1 µM |
| COc1cc2nccc(OCC3CC(NC(=O)NC4CC4)C3)c2cc1C(N)=O (centres unmarked) [Example 128] | – | – | 0.2 to 1 µM |
| COc1cc2nccc(OC3CC(NC(=O)NC4CC4)C3)c2cc1C(N)=O (centres unmarked) [Example 129] | – | – | 0.2 to 1 µM |
| CCOP(=O)(Cc1ccc(Oc2ccnc3cc(OC)c(C(N)=O)cc23)cc1Cl)NC1CC1 (centres unmarked) [Example 132] | – | – | 0.2 to 1 µM |
| COc1cc2nccc(Oc3ccc(CP(=O)(O)NC4CC4)c(Cl)c3)c2cc1C(N)=O [Example 133] | – | – | 0.2 to 1 µM |
| COc1cc2nccc(Oc3ccc(N/C(=C/[N+](=O)[O-])NC4CC4)c(Cl)c3)c2cc1C(N)=O [Example 134] | – | – | 0.2 to 1 µM |
| COc1cc2nccc(Oc3ccc(Nc4nc(=O)cc(C)[nH]4)c(Cl)c3)c2cc1C(N)=O [Example 135] | – | – | 0.2 to 1 µM |
| COc1cc2nccc(Oc3ccc4nc(Nc5ccc(Cl)c(F)c5)sc4c3)c2cc1C(N)=O [Example 159] | – | – | 0.2 to 1 µM |
| COc1cc2nccc(Oc3ccc(-c4c[nH]c(C(C)C)n4)c(Cl)c3)c2cc1C(N)=O [Example 179] | – | – | 0.2 to 1 µM |
| COc1cc2nccc(Oc3ccc4oc(C(=O)N5CCCC5)cc4c3)c2cc1C(N)=O [Example 192] | – | – | 0.2 to 1 µM |

The next lines start with the values.

| IC50 (PDGFRB) | IC50 (FGFR1) | IC50 (VEGFR2) | Structure (SMILES) |
| --- | --- | --- | --- |
| 0.2 to 1 µM | 0.2 to 1 µM | < 0.05 µM | COc1cc2nccc(Oc3ccc(NC(=S)N4CCCC4)c(Cl)c3)c2cc1C(N)=O [Example 32] |
| 0.05 to 0.2 µM | 0.2 to 1 µM | 0.2 to 1 µM | COc1cc2nccc(Oc3ccc(NC(=O)NC(C)(C)C(F)(F)F)c(Cl)c3)c2cc1C(N)=O [Example 33] |
| 0.05 to 0.2 µM | 0.2 to 1 µM | 0.2 to 1 µM | COc1cc2nccc(Oc3ccc4c(c3)CCCN4C(=S)NCC(F)F)c2cc1C(N)=O [Example 34] |
| 0.05 to 0.2 µM | 0.05 to 0.2 µM | < 0.05 µM | COc1cc2nccc(Oc3ccc(NC(=S)N4CC(F)(F)C4)c(Cl)c3)c2cc1C(N)=O [Example 35] |
| 0.05 to 0.2 µM | 0.2 to 1 µM | < 0.05 µM | COc1cc2nccc(Oc3ccc(NC(=S)NC4CC4)c(Cl)c3)c2cc1C(=O)NCC(F)F [Example 37] |
| 0.2 to 1 µM | 0.2 to 1 µM | 0.05 to 0.2 µM | COc1cc2nccc(Oc3ccc(NC(=S)NC4CC4)c(Cl)c3)c2cc1C(=O)NCC(F)(F)F [Example 38] |
| 0.05 to 0.2 µM | 0.2 to 1 µM | 0.05 to 0.2 µM | CCN(CC)CCNC(=O)c1cc2c(Oc3ccc(NC(=S)NC4CC4)c(Cl)c3)ccnc2cc1OC [Example 39] |
| 0.05 to 0.2 µM | 0.2 to 1 µM | 0.05 to 0.2 µM | CCN(CC)CCCNC(=O)c1cc2c(Oc3ccc(NC(=S)NC4CC4)c(Cl)c3)ccnc2cc1OC [Example 40] |
| 0.2 to 1 µM | 0.2 to 1 µM | < 0.05 µM | COc1cc2nccc(Oc3ccc(NC(=S)NC4CC4)c(C(F)(F)F)c3)c2cc1C(N)=O [Example 41] |
| – | – | < 0.05 µM | Cc1c(OC[C@@H](C)O)cn2ncnc(Oc3ccc(NC(=O)NC4CC4)c(Cl)c3)c12 [Example 126] |
